# Laboratory results as given in ChEMBL document CHEMBL6134901 (J Med Chem, 2025).
# Active and inactive are the calls of the source. No cut-off for these calls is given here.
# How the values were obtained:
# Veillonella = assay: Antibacterial activity against Veillonella sp. HM-49; type: functional
# Bifidobacterium longum = assay: Antibacterial activity against Bifidobacterium longum HM-846; type: functional
# Clostridioides difficile [1] = assay: Antibacterial activity against metronidazole-resistant Clostridium difficile […] clinical isolate; type: functional
# Klebsiella aerogenes = assay: Antibacterial activity against Enterobacter aerogenes ATCC 35029; type: functional
# Fusobacterium nucleatum = assay: Antibacterial activity against methicillin/oxacillin/tetracycline-resistant mecA-positive Fusobacterium nucleatum HM-992; type: functional
# [2] = tested on: Limosilactobacillus reuteri; assay: Antibacterial activity against vancomycin-susceptible Lactobacillus reuteri HM-102 clinical isolate; type: functional
# Enterococcus faecium [3] = assay: Antibacterial activity against vancomycin-resistant Enterococcus faecium 106 clinical isolate; type: functional
# Klebsiella pneumoniae = assay: Antibacterial activity against Klebsiella pneumoniae ATCC 700603; type: functional
# Pseudomonas aeruginosa = assay: Antibacterial activity against Pseudomonas aeruginosa ATCC 27853; type: functional
# Escherichia coli = assay: Antibacterial activity against Escherichia coli ATCC 25922; type: functional
# Enterococcus faecalis = assay: Antibacterial activity against Enterococcus faecalis ATCC 29212; type: functional
# Clostridioides difficile [4] = assay: Antibacterial activity against Clostridium difficile RMA23828; type: functional
# Acinetobacter baumannii = assay: Antibacterial activity against Acinetobacter baumannii ATCC 17961; type: functional
# Bacteroides fragilis = assay: Antibacterial activity against Bacteroides fragilis HM-709; type: functional
# Staphylococcus aureus [5] = assay: Antibacterial activity against vancomycin-resistant Staphylococcus aureus VRS1 clinical isolate; type: functional
# Staphylococcus aureus [6] = assay: Antibacterial activity against Staphylococcus aureus NRS119; type: functional
# [7] = tested on: Staphylococcus haemolyticus; assay: Antibacterial activity against Staphylococcus haemolyticus ATCC 29970; type: functional
# Staphylococcus aureus [8] = assay: Antibacterial activity against Staphylococcus aureus NRS100; type: functional
# [9] = tested on: Staphylococcus epidermidis; assay: Antibacterial activity against Staphylococcus epidermidis ATCC 35547; type: functional
# Enterococcus faecium [10] = assay: Antibacterial activity against vancomycin-susceptible Enterococcus faecium 119-39A; type: functional
# Bacillus cereus = assay: Antibacterial activity against Bacillus cereus ATCC 13061; type: functional
# Clostridioides difficile [11] = assay: Antibacterial activity against fidaxomicin-resistant Clostridium difficile RMA23691 clinical isolate; type: functional
# Staphylococcus aureus [12] = assay: Antibacterial activity against Staphylococcus aureus ATCC 29213; type: functional
# Eubacterium sp. = assay: Antibacterial activity against Eubacterium sp. HM-178; type: functional
# Lactobacillus gasseri = assay: Antibacterial activity against Lactobacillus gasseri HM-644; type: functional
# Clostridioides difficile [13] = assay: Antibacterial activity against Clostridium difficile RMA26675; type: functional
# Clostridioides difficile [14] = assay: Antibacterial activity against Clostridium difficile ATTC43255 incubated for 24 to 48 hrs anaerobically by colony counting method; type: functional; conditions: time 24-48 hrs
# [15] = Selectivity index, ratio of LD50 for cytotoxicity against human HepG2 cells to IC50 for antibacterial activity against Clostridium difficile ATTC43255 assessed as spore germination inhibition; type: toxicity, cell-based; conditions: read-out: Ratio LD50/IC50
# Clostridioides difficile [16] = assay: Antibacterial activity against Clostridium difficile ATTC43255 assessed as spore germination inhibition at 45 uM incubated for 60 mins by spectrometry relative to control; type: functional; conditions: ATTC43255, 1 h
# [17] = Cytotoxicity against human HepG2 cells incubated for 24 hrs by XTT assay; type: toxicity, cell-based; conditions: read-out: LD50
# Clostridioides difficile [18] = assay: Antibacterial activity against Clostridium difficile ATTC43255 assessed as spore germination inhibition incubated for 60 mins by spectrometry; type: functional, organism-based; conditions: ATTC43255, 1 h
# [19] = Binding affinity to bacterial pro-SleC assessed as dissociation constant by MST assay; design: species or system Bacteria
# [20] = Binding affinity to N-terminal His-tagged full-length Clostridium difficile SleC extracted from Escherichia coli LOBSTR-RIL assessed as dissociation constant by MST assay; design: species or system Clostridioides difficile
# [21] = Binding affinity to bacterial prepro-SleC assessed as dissociation constant by MST assay; design: species or system Bacteria
# [22] = Binding affinity to bacterial CspB assessed as dissociation constant by MST assay; design: species or system Bacteria
# [23] = Binding affinity to bacterial CspA assessed as dissociation constant by MST assay; design: species or system Bacteria
# [24] = Binding affinity to bacterial GerS assessed as dissociation constant by MST assay; design: species or system Bacteria
# Bacteria [25] = assay: Binding affinity to bacterial pdaA assessed as dissociation constant by MST assay
# Bacteria [26] = assay: Binding affinity to bacterial cwID assessed as dissociation constant by MST assay
smiles,measurement,setting,value
CN[C@H](CC(C)C)C(=O)N[C@H]1C(=O)N[C@@H](CC(N)=O)C(=O)N[C@H]2C(=O)N[C@H]3C(=O)N[C@H](C(=O)N[C@H](C(=O)O)c4cc(O)cc(O)c4-c4cc3ccc4O)[C@H](O)c3ccc(c(Cl)c3)Oc3cc2cc(c3O[C@@H]2O[C@H](CO)[C@@H](O)[C@H](O)[C@H]2O[C@H]2C[C@](C)(N)[C@H](O)[C@H](C)O2)Oc2ccc(cc2Cl)[C@H]1O [VANCOMYCIN],MIC,Veillonella,> 32 µg/mL
same,MIC,Bifidobacterium longum,0.25 µg/mL
same,MIC,Clostridioides difficile [1],0.25 µg/mL
same,MIC,Klebsiella aerogenes,> 128 µg/mL
same,MIC,Fusobacterium nucleatum,0.25 µg/mL
same,MIC,[2],> 32 µg/mL
same,MIC,Enterococcus faecium [3],> 16 µg/mL
same,MIC,Klebsiella pneumoniae,> 128 µg/mL
same,MIC,Pseudomonas aeruginosa,> 128 µg/mL
same,MIC,Escherichia coli,> 128 µg/mL
same,MIC,Enterococcus faecalis,2 µg/mL
same,MIC,Clostridioides difficile [4],0.5 µg/mL
same,MIC,Acinetobacter baumannii,> 128 µg/mL
same,MIC,Bacteroides fragilis,16 µg/mL
same,MIC,Staphylococcus aureus [5],64 µg/mL
CCc1c(Cl)c(O)c(Cl)c(O)c1C(=O)O[C@H]1[C@H](O)[C@H](OC)[C@H](OC/C2=C\C=C\C[C@H](O)/C(C)=C/[C@H](CC)[C@@H](O[C@@H]3OC(C)(C)[C@@H](OC(=O)C(C)C)[C@H](O)[C@@H]3O)/C(C)=C/C(C)=C/C[C@@H]([C@@H](C)O)OC2=O)O[C@@H]1C [FIDAXOMICIN],MIC,Veillonella,8 µg/mL
same,MIC,Bifidobacterium longum,0.01 µg/mL
same,MIC,Staphylococcus aureus [6],2 µg/mL
same,MIC,Clostridioides difficile [1],0.125 µg/mL
same,MIC,[7],16 µg/mL
same,MIC,Staphylococcus aureus [8],16 µg/mL
same,MIC,[9],4 µg/mL
same,MIC,Enterococcus faecium [10],> 16 µg/mL
same,MIC,Klebsiella aerogenes,> 128 µg/mL
same,MIC,Fusobacterium nucleatum,< 0.06 µg/mL
same,MIC,Bacillus cereus,16 µg/mL
same,MIC,[2],> 32 µg/mL
same,MIC,Clostridioides difficile [11],4 µg/mL
same,MIC,Staphylococcus aureus [12],16 µg/mL
same,MIC,Enterococcus faecium [3],> 16 µg/mL
same,MIC,Klebsiella pneumoniae,> 128 µg/mL
same,MIC,Eubacterium sp.,16 µg/mL
same,MIC,Lactobacillus gasseri,2 µg/mL
same,MIC,Pseudomonas aeruginosa,> 128 µg/mL
same,MIC,Escherichia coli,> 128 µg/mL
same,MIC,Enterococcus faecalis,> 16 µg/mL
same,MIC,Clostridioides difficile [4],> 8 µg/mL
same,MIC,Acinetobacter baumannii,> 128 µg/mL
same,MIC,Clostridioides difficile [13],4 µg/mL
same,MIC,Bacteroides fragilis,> 32 µg/mL
same,MIC,Staphylococcus aureus [5],64 µg/mL
Cl.NCc1ccc(-c2nc(-c3ccc(I)cc3)no2)cc1,MIC,Clostridioides difficile [14],8 µg/mL
same,selectivity ratio,[15],3
same,inhibition at 45 µM,Clostridioides difficile [16],51%
same,CC50 at 24 h,[17],39 µg/mL
same,IC50,Clostridioides difficile [18],37 µM
CC(C)Cc1ccc(-c2nc(-c3ccc(CN4CC(C(=O)O)C4)cc3)no2)cc1,inhibition at 45 µM,Clostridioides difficile [16],< 10%
CC(C)Oc1ccc(-c2nc(-c3cccc4c3CC[C@@H]4NCCO)no2)cc1C#N.Cl [OZANIMOD HYDROCHLORIDE],MIC,Clostridioides difficile [14],64 µg/mL
same,selectivity ratio,[15],3
same,inhibition at 45 µM,Clostridioides difficile [16],62%
same,CC50 at 24 h,[17],46 µg/mL
same,IC50,Clostridioides difficile [18],39 µM
Oc1ccc(-c2nc(N3CCN(c4cccc(Cl)c4)CC3)no2)cc1,inhibition at 45 µM,Clostridioides difficile [16],< 10%
O=C(Nc1c[nH]nc1-c1nc(-c2ccc(Oc3ccc(C(F)(F)F)cc3)cc2)no1)c1ccccn1,inhibition at 45 µM,Clostridioides difficile [16],< 10%
NCc1ccc(-c2nc(-c3ccc(OC4CCCCC4)cc3)no2)cc1,inhibition at 45 µM,Clostridioides difficile [16],43%
NCc1ccc(-c2nc(-c3ccc(OC(F)(F)F)cc3)no2)cc1,inhibition at 45 µM,Clostridioides difficile [16],33%
Oc1ccc(-c2nc(-c3ccc(OC4CCCC4)cc3)no2)cc1,MIC,Veillonella,> 128 µg/mL
same,Kd,[19],91 µM
same,MIC,Bifidobacterium longum,1 µg/mL
same,MIC,Staphylococcus aureus [6],2 µg/mL
same,MIC,Clostridioides difficile [1],2 µg/mL
same,MIC,[7],2 µg/mL
same,MIC,Staphylococcus aureus [8],2 µg/mL
same,MIC,[9],2 µg/mL
same,MIC,Enterococcus faecium [10],2 µg/mL
same,MIC,Klebsiella aerogenes,> 128 µg/mL
same,Kd,[20],> 200 µM
same,MIC,Fusobacterium nucleatum,2 µg/mL
same,MIC,Bacillus cereus,2 µg/mL
same,MIC,[2],> 128 µg/mL
same,MIC,Clostridioides difficile [11],4 µg/mL
same,inhibition at 45 µM,Clostridioides difficile [16],26%
same,MIC,Staphylococcus aureus [12],2 µg/mL
same,MIC,Enterococcus faecium [3],2 µg/mL
same,Kd,[21],4.3 µM
same,Kd,[22],75 µM
same,MIC,Klebsiella pneumoniae,> 128 µg/mL
same,MIC,Eubacterium sp.,0.5 µg/mL
same,MIC,Lactobacillus gasseri,> 128 µg/mL
same,Kd,[23],> 200 µM
same,Kd,[24],> 200 µM
same,CC50 at 24 h,[17],22 µg/mL
same,MIC,Pseudomonas aeruginosa,> 128 µg/mL
same,MIC,Escherichia coli,> 128 µg/mL
same,MIC,Enterococcus faecalis,4 µg/mL
same,Activity,Bacteria [25],inactive
same,IC50,Clostridioides difficile [18],74 µM
same,MIC,Clostridioides difficile [4],4 µg/mL
same,MIC,Acinetobacter baumannii,> 128 µg/mL
same,MIC,Clostridioides difficile [13],4 µg/mL
same,MIC,Bacteroides fragilis,2 µg/mL
same,Activity,Bacteria [26],inactive
same,MIC,Staphylococcus aureus [5],2 µg/mL
FC(F)(F)c1ccc(Oc2ccc(-c3noc(-c4cn[nH]n4)n3)cc2)cc1,inhibition at 45 µM,Clostridioides difficile [16],< 10%
O=[N+]([O-])c1c[nH]c(-c2nc(-c3ccc(Oc4ccc(C(F)(F)F)cc4)cc3)no2)c1,inhibition at 45 µM,Clostridioides difficile [16],< 10%
NCc1ccc(-c2nc(-c3ccc(CN4CCCC4)cc3)no2)cc1,inhibition at 45 µM,Clostridioides difficile [16],< 10%
CCN(CC)CCc1nc(-c2ccccc2)no1,inhibition at 45 µM,Clostridioides difficile [16],< 10%
NCc1ccc(-c2nc(-c3ccc(Oc4ccc(C(F)(F)F)cc4)cc3)no2)cc1,inhibition at 45 µM,Clostridioides difficile [16],41%
CCCOc1ccc(-c2noc(-c3ccc(CN)cc3)n2)cc1,inhibition at 45 µM,Clostridioides difficile [16],12%
FC(F)(F)c1ccc(Oc2ccc(-c3noc(-c4ccc(Br)cc4)n3)cc2)cc1,inhibition at 45 µM,Clostridioides difficile [16],< 10%
